The results in this text go back to PubChem BioAssay AID1919001 (Molecular Pharmacology Branch, DTP, NCI, 2023).

“And” between values parts separate entries of the source, which are not always exact repeats. Identical values can stand only once.

This experiment concerns 699152-130-R-J1-PDC complex spheroid growth. Description: Anticancer human tumor 699152-130-R-J1-PDC patient-derived pancreatic carcinoma cell line growth inhibition [AhR]. The conditions noted are these: for viability, T/C: stronger effect = lower value. From the text:
Multicellular complex tumor spheroid response to aryl hydrocarbon receptor antagonists in combination with a variety of drugs and investigational agents in selected tumor cell lines
The current study was undertaken to assess response to aryl hydrocarbon receptor antagonists in combination with standard-of-care drugs and investigational agents in solid tumor complex spheroid models. Complex spheroids include a stromal component modeled by human endothelial cells (HUVEC) and fibroblasts modeled by human mesenchymal stem cells (MSCs). The concentration ranges selected for each drug and investigational agent were based upon clinically achievable concentrations if the clinical Cmax of the agent was known.
Compounds. The drugs and investigational agents: BAY 2416964 (NSC825713), GNF351 (NSC835774), CH-223191 (NSC835775), CPI-455 (NSC825282), aza-TdCyd (NSC777586), decitabine (NSC127716), belinostat (NSC758774), entinostat (NSC756642), pevonedistat (NSC761192), tazemetostat (NSC777109), talazoparib (NSC765396), olaparib (NSC753686), selinexor (NSC780203), nedisertib (M3814, NSC802822), bortezomib (NSC756655), venetoclax (NSC766270), doxorubicin (NSC123127), elimusertib (BAY189344, NSC800525), ceralasertib (AZD6738, NSC777638), TAK-243 (NSC785004), alisertib (NSC759677), etoposide (NSC141540), topotecan (NSC609699), eribulin (NSC707389), gemcitabine (NSC613327), carboplatin (NSC241240), cisplatin (NSC119875), and SN-38 (NSC673596) were obtained from the National Cancer Institute (NCI) Developmental Therapeutics Program Chemical Repository (32). The FDA-approved anticancer drug set is available from the Developmental Therapeutics Program at https://dtp.cancer.gov/organization/dscb/obtaining/available plates.htm. […] The stock solutions were prepared in dimethyl sulfoxide (DMSO, Sigma-Aldrich, St. Louis, MO, cat. D2650), except for the platinum compounds which were prepared in saline (Quality Biological, Gaithersburg, MD, cat. 114-055-101), at 800-fold the tested concentration and stored at -70 degrees C prior to their use. All drugs and investigational agents were tested over a range starting from a high concentration at or near the clinical Cmax and decreasing in half-log increments. If the clinical Cmax for an agent had not been determined, the highest concentration tested was 10 microM (Table 1).
Cell Culture. All cells were maintained in an incubator at 37 degrees C and 5% CO2 with 95% humidity. The PDC lines were cultured according to standard operating procedures established by the NCI PDMR (https://pdmr.cancer.gov). Briefly, all PDCs were thawed and cultured in Matrigel-coated flasks prepared with a working solution of 1X Ham's F-12 nutrient mix, without supplementation (Invitrogen, Waltham, MA, cat. 11765054), 100 U/mL penicillin-streptomycin (Invitrogen, cat. 15140122), and 2.5% Matrigel (Corning Inc., Corning, NY, cat. 354248) for the first three passages. All PDCs were cultured in complete DMEM/F-12 media containing advanced DMEM/F-12 (Invitrogen, cat. 12634028), 4.9% defined fetal bovine serum, heat inactivated (HyClone Laboratories Inc., Logan, UT, cat. SH30070.03HI), 389 ng/mL hydrocortisone (Sigma-Aldrich, cat. H4001), 9.7 ng/mL human EGF recombinant protein (Invitrogen, cat. PHG0313), 23.4 microg/mL adenine (Sigma-Aldrich, cat. A2786), 97.3 U/mL penicillin-streptomycin (Invitrogen, cat. 15140122), 1.9 mM L-glutamine (Invitrogen, cat. 25030081), and 9.7 microM Y-27632 dihydrochloride (Tocris Bioscience, Bristol, United Kingdom, cat. 1254). The PDCs were cultured in complete DMEM/F12 media without 10 microM Y-27632 dihydrochloride for at least two passages prior to the screen. The established cell lines NCI-H1341 and […] were cultured in DMEM/F-12, HEPES (Invitrogen, cat. 11330032), 5% defined fetal bovine serum (HyClone Laboratories Inc., cat. SH30070.03), ITS premix universal culture supplement [insulin (5 microg/mL), transferrin (5 microg/mL), and selenious acid (5 ng/mL)] […]

Setting [1] is: curve of first compound, second compound 0.1 µM.
[2] abbreviates: curve of first compound, second compound 0.316 µM.
Where [3] appears, read: curve of first compound, second compound 1 µM.
Setting [4] is: curve of first compound, second compound 3.16 µM.
[5] abbreviates: curve of first compound, second compound 10 µM.

The IC50 is the concentration that inhibits the measured activity by half. The term viability, T/C denotes the result in the treated group divided by that in the control group, in per cent.
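Also: compound exposure lasted 7 days after spheroids had grown for 3 days.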

On to `CCN(c1cc(-c2ccc(CN3CCOCC3)cc2)cc(C(=O)NCc2c(C)cc(C)[nH]c2=O)c1C)C1CCOCC1` + Cc1cncc(-c2nc(NCCc3c[nH]c4ccccc34)c3ncn(C(C)C)c3n2)c1, for which the IC50 was greater than 3 µM under setting [1]; greater than 3 µM under setting [2]; greater than 3 µM under setting [3]; greater than 3 µM under setting [4]; less than 0.00949 µM under setting [5]. The viability, T/C was 101% (second compound 0.1 µM, first compound 0.00949 µM); 110% (second compound 0.1 µM, first compound 0.03 µM); 113% (second compound 0.1 µM, first compound 0.0949 µM); 120% (second compound 0.1 µM, first compound 0.3 µM); 98.2% (second compound 0.1 µM, first compound 0.949 µM); 120% (second compound 0.1 µM, first compound 3 µM). The viability, T/C is 88.9% (second compound 0.316 µM, first compound 0.00949 µM); 94.4% (second compound 0.316 µM, first compound 0.03 µM); 112% (second compound 0.316 µM, first compound 0.0949 µM); 98.9% (second compound 0.316 µM, first compound 0.3 µM); 103% (second compound 0.316 µM, first compound 0.949 µM); 98.7% (second compound 0.316 µM, first compound 3 µM). Besides, the viability, T/C by setting is: (second compound 1 µM, first compound 0.00949 µM) 121%; (second compound 1 µM, first compound 0.03 µM) 116%; (second compound 1 µM, first compound 0.0949 µM) 116%; (second compound 1 µM, first compound 0.3 µM) 131%; (second compound 1 µM, first compound 0.949 µM) 119%; (second compound 1 µM, first compound 3 µM) 112%. In addition, the viability, T/C was 110% (second compound 3.16 µM, first compound 0.00949 µM); 106% (second compound 3.16 µM, first compound 0.03 µM); 114% (second compound 3.16 µM, first compound 0.0949 µM); 116% (second compound 3.16 µM, first compound 0.3 µM); 114% (second compound 3.16 µM, first compound 0.949 µM); 112% (second compound 3.16 µM, first compound 3 µM). In addition, the viability, T/C reads like this: (second compound 10 µM, first compound 0.00949 µM) 28.7%; (second compound 10 µM, first compound 0.03 µM) 30.9%; (second compound 10 µM, first compound 0.0949 µM) 28.9%; (second compound 10 µM, first compound 0.3 µM) 23.5%; (second compound 10 µM, first compound 0.949 µM) 22.4%; (second compound 10 µM, first compound 3 µM) 11.3%.
With `O=C(C=Cc1cccc(S(=O)(=O)Nc2ccccc2)c1)NO`, the viability, T/C by setting is: (compound 0.0316 µM) 107% and 91.2% and 102%; (compound 0.1 µM) 114% and 101% and 110%; (compound 0.316 µM) 106% and 114% and 116%; (compound 1 µM) 106% and 116% and 112%; (compound 3.16 µM) 106% and 107% and 116%; (compound 10 µM) 86.2% and 96.8% and 77.4%. Where the note is “curve of compound”, the 50% inhibitory concentration (IC50) was greater than 10 µM.
Turning to `CC1COCCN1c1cc(-c2ccnn2C)c2ccnc(-c3ccn[nH]3)c2n1` (centres undefined), the viability, T/C runs as follows: (compound 0.00316 µM) 106% and 92.5% and 103%; (compound 0.01 µM) 106% and 96.9% and 109%; (compound 0.0316 µM) 95.6% and 95.9% and 92.5%; (compound 0.1 µM) 85.9% and 90.6% and 95.9%; (compound 0.316 µM) 72.5% and 84.8% and 77.6%; (compound 1 µM) 59.9% and 58.5% and 61.5%. The concentration for half-maximal inhibition (IC50) (curve of compound) is greater than 1 µM.
Turning to `CC(C)c1c(-c2ccccc2)nc2c(C#N)c[nH]n2c1=O` + CC(CO)NC(=O)c1cc(-c2ccc(Cl)cc2)nn(-c2cnn(C)c2)c1=O, the IC50 by setting is: under setting [1], greater than 10 µM; under setting [2], greater than 10 µM; under setting [3], greater than 10 µM; under setting [4], greater than 10 µM; under setting [5], greater than 10 µM. Moreover, the viability, T/C (second compound 0.1 µM, first compound 0.0316 µM) was 97%; the viability, T/C (second compound 0.1 µM, first compound 0.1 µM) is 97.8%; the viability, T/C (second compound 0.1 µM, first compound 0.316 µM) was 109%; the viability, T/C (second compound 0.1 µM, first compound 1 µM) is 100%; the viability, T/C (second compound 0.1 µM, first compound 3.16 µM) was 94.9%; the viability, T/C (second compound 0.1 µM, first compound 10 µM) is 95.5%. In addition, the viability, T/C by setting is: (second compound 0.316 µM, first compound 0.0316 µM) 93.6%; (second compound 0.316 µM, first compound 0.1 µM) 98.7%; (second compound 0.316 µM, first compound 0.316 µM) 86.4%; (second compound 0.316 µM, first compound 1 µM) 87.9%; (second compound 0.316 µM, first compound 3.16 µM) 93.3%; (second compound 0.316 µM, first compound 10 µM) 86.6%. Also, the viability, T/C (second compound 1 µM, first compound 0.0316 µM) was 99.7%; the viability, T/C (second compound 1 µM, first compound 0.1 µM) is 104%; the viability, T/C (second compound 1 µM, first compound 0.316 µM) was 105%; the viability, T/C (second compound 1 µM, first compound 1 µM) is 97.3%; the viability, T/C (second compound 1 µM, first compound 3.16 µM) was 85.5%; the viability, T/C (second compound 1 µM, first compound 10 µM) is 86.8%. Further, the viability, T/C is 92.4% (second compound 3.16 µM, first compound 0.0316 µM); 90.3% (second compound 3.16 µM, first compound 0.1 µM); 94.8% (second compound 3.16 µM, first compound 0.316 µM); 95.4% (second compound 3.16 µM, first compound 1 µM); 83.5% (second compound 3.16 µM, first compound 3.16 µM); 79.5% (second compound 3.16 µM, first compound 10 µM). The viability, T/C is 95.6% (second compound 10 µM, first compound 0.0316 µM); 100% (second compound 10 µM, first compound 0.1 µM); 82.1% (second compound 10 µM, first compound 0.316 µM); 82.7% (second compound 10 µM, first compound 1 µM); 85% (second compound 10 µM, first compound 3.16 µM); 79.8% (second compound 10 µM, first compound 10 µM).
